According to the supplement of paper PMC10307832:

Key:
Assay in all cases: relative viability (nuclei count vs DMSO), 5 days (fraction); higher = more cells survive
Motesanib + Pemetrexed = compound: CC1(C)CNc2cc(NC(=O)c3cccnc3NCc3ccncc3)ccc21 [Motesanib] + Nc1nc2[nH]cc(CCc3ccc(C(=O)N[C@@H](CCC(=O)O)C(=O)O)cc3)c2c(=O)[nH]1 [Pemetrexed] (partner 0.2 µM)
Outline: (§1)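 Relative viability equals treated-well nuclei counts divided by vehicle-well nuclei counts. Counts came from 4× images of lung cancer cell lines grown in 1536-well plates for 5 days after pin-tool dosing on the day after seeding. Dosing used one drug alone or a fixed anchor-drug dose plus five library-drug doses (not always all listed) in √10 steps, and values are medians of duplicate plates.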

[1] = compound: C[C@@]1(C(=O)Nc2ccc(F)nc2)CCCN1c1nc(Nc2cc(C3CC3)n[nH]2)c2cccn2n1 + Nc1ncn([C@H]2C[C@H](O)[C@@H](CO)O2)c(=O)n1 [Decitabine] (partner 2 µM)
Outline: as §1

[2] = compound: C[C@@]1(C(=O)Nc2ccc(F)nc2)CCCN1c1nc(Nc2cc(C3CC3)n[nH]2)c2cccn2n1 + O=C(c1cc(Cc2n[nH]c(=O)c3ccccc23)ccc1F)N1CCN(C(=O)C2CC2)CC1 [Olaparib] (partner 8 µM)
Outline: as §1

[3] = compound: C[C@@]1(C(=O)Nc2ccc(F)nc2)CCCN1c1nc(Nc2cc(C3CC3)n[nH]2)c2cccn2n1 + COc1cccc2cc(-c3nc([C@H]4CC[C@H](C(=O)O)CC4)n4ncnc(N)c34)[nH]c12 [OSI-027] (partner 0.5 µM)
Outline: as §1

| Cell Line | relative viability (Motesanib + Pemetrexed; first compound 0.01 µM) | relative viability (Motesanib + Pemetrexed; first compound 0.03162 µM) | relative viability (Motesanib + Pemetrexed; first compound 0.1 µM) | relative viability (Motesanib + Pemetrexed; first compound 0.3162 µM) | relative viability (Motesanib + Pemetrexed; first compound 1 µM) | relative viability ([1]; first compound 0.04 µM) | relative viability ([1]; first compound 0.1265 µM) | relative viability ([1]; first compound 0.4 µM) | relative viability ([1]; first compound 1.265 µM) | relative viability ([2]; first compound 0.04 µM) | relative viability ([2]; first compound 0.1265 µM) | relative viability ([2]; first compound 0.4 µM) | relative viability ([2]; first compound 1.265 µM) | relative viability ([3]; first compound 0.04 µM) | relative viability ([3]; first compound 0.1265 µM) | relative viability ([3]; first compound 0.4 µM) | relative viability ([3]; first compound 1.265 µM) |
| --- | --- | --- | --- | --- | --- | --- | --- | --- | --- | --- | --- | --- | --- | --- | --- | --- | --- |
| HCC-44 | 0.656 | 0.653 | 0.788 | 0.724 | 0.605 | 0.957 | 0.949 | 0.811 | 0.84 | 0.94 | 0.879 | 0.867 | 0.911 | 0.447 | 0.213 | 0.298 | 0.191 |
| HCC-827 | 0.252 | 0.301 | 0.271 | 0.277 | 0.29 | 0.295 | 0.312 | 0.351 | 0.305 | 0.663 | 0.769 | 0.55 | 0.716 | 0.393 | 0.782 | 0.707 | 0.724 |
| NCI-H1623 | – | – | – | – | – | – | – | – | – | – | – | – | – | 0.423 | 0.32 | 0.307 | 0.302 |
| NCI-H2347 | 0.396 | 0.406 | 0.387 | 0.447 | 0.364 | 0.571 | 0.574 | 0.487 | 0.599 | 0.536 | 0.569 | 0.48 | 0.524 | 0.33 | 0.287 | 0.244 | 0.342 |
| PC-14 | 0.131 | 0.126 | 0.132 | 0.128 | 0.13 | 0.209 | 0.27 | 0.177 | 0.172 | 0.368 | 0.335 | 0.319 | 0.222 | 0.869 | 0.284 | 0.563 | 0.279 |
| NCI-H1651 | 0.544 | 0.618 | 0.519 | 0.531 | 0.585 | 0.567 | 0.527 | 0.565 | 0.45 | 0.2 | 0.183 | 0.196 | 0.201 | 0.658 | 0.525 | 0.423 | 0.501 |
| HARA | 0.194 | 0.207 | 0.128 | 0.185 | 0.212 | 0.445 | 0.436 | 0.418 | 0.513 | 0.81 | 0.74 | 0.59 | 0.656 | 0.439 | 0.208 | 0.171 | 0.25 |
| NCI-H1650 | 0.357 | 0.367 | 0.33 | 0.349 | 0.425 | 0.348 | 0.458 | 0.463 | 0.447 | 0.692 | 0.846 | 0.678 | 0.729 | 0.546 | 0.49 | 0.442 | 0.374 |
| NCI-H1395 | 0.923 | 0.815 | 0.826 | 0.881 | 0.765 | 0.7 | 0.705 | 0.653 | 0.68 | 0.505 | 0.437 | 0.408 | 0.497 | 0.727 | 0.561 | 0.668 | 0.665 |
| LU99A | 0.2 | 0.181 | 0.185 | 0.18 | 0.174 | 0.764 | 0.585 | 0.527 | 0.738 | 0.292 | 0.227 | 0.231 | 0.276 | 0.251 | 0.233 | 0.223 | 0.186 |
| NCI-H1355 | 1.06 | 1.04 | 1.05 | 1.07 | 0.991 | 0.388 | 0.313 | 0.337 | 0.352 | 0.661 | 0.59 | 0.561 | 0.572 | 0.272 | 0.236 | 0.21 | 0.251 |
| HCC-78 | 0.902 | 0.897 | 0.858 | – | 0.906 | 0.624 | 0.564 | 0.587 | 0.394 | 0.661 | 1.12 | 0.375 | 0.427 | 0.377 | 0.308 | 0.298 | 0.323 |
| NCI-H1563 | 0.679 | 0.82 | 0.871 | 0.644 | 0.794 | – | – | – | – | – | – | – | – | 0.721 | 0.599 | 0.609 | 0.631 |
| HCC-15 | 0.212 | 0.203 | 0.188 | 0.179 | 0.202 | 0.48 | 0.375 | 0.43 | 0.311 | 0.663 | 0.614 | 0.611 | 0.635 | 0.417 | 0.189 | 0.305 | 0.365 |
| EKVX | 0.414 | 0.377 | 0.368 | 0.394 | 0.406 | 0.29 | 0.246 | 0.357 | 0.288 | 0.874 | 0.644 | 0.635 | 0.735 | 0.574 | 0.399 | 0.391 | 0.373 |
| NCI-H2087 | – | – | 0.657 | 0.73 | 0.605 | 0.237 | 0.191 | 0.258 | 0.16 | 0.593 | 0.483 | 0.369 | 0.482 | 0.366 | 0.254 | 0.267 | 0.338 |
| LK-2 | 0.234 | 0.288 | 0.208 | 0.256 | 0.171 | – | 0.171 | 0.18 | 0.162 | 0.38 | 0.287 | 0.29 | 0.35 | – | 0.163 | 0.153 | 0.178 |
| NCI-H1437 | 0.297 | 0.286 | 0.318 | 0.32 | 0.297 | 0.553 | 0.517 | 0.521 | 0.432 | 0.666 | 0.631 | 0.576 | 0.59 | 0.703 | 0.272 | 0.208 | 0.205 |
| COR-L23 | 0.186 | 0.198 | 0.187 | 0.197 | 0.184 | 0.413 | 0.412 | 0.315 | 0.267 | 0.315 | 0.367 | 0.234 | 0.188 | 0.656 | 0.53 | 0.518 | 0.461 |
| ABC-1 | – | – | – | – | – | 1.01 | 0.714 | 0.628 | 0.785 | 0.664 | 0.584 | 0.774 | 0.668 | 0.382 | 0.285 | 0.225 | 0.298 |
